Legend:
Experiment in all cases: KINOMEscan competition binding
Conditions in all cases: compound 10.0 µM
CASK (human) = CASK (human) (UniProt O14936)
FRK (human) = FRK (human) (UniProt P42685)
MAP2K7 (human) = MAP2K7 (human) (UniProt O14733)
ROCK1 (human) = ROCK1 (human) (UniProt Q13464)
[1] = system: EGFR (human), P00533 [T790M]
STK32B (human) = STK32B (human) (UniProt Q9NY57)
CaMK1 (human) = CaMK1 (human) (UniProt Q14012)
PIP4K2B (human) = PIP4K2B (human) (UniProt P78356)
CDK19 (human) = CDK19 (human) (UniProt Q9BWU1)
IKBKB (human) = IKBKB (human) (UniProt O14920)
LATS2 (human) = LATS2 (human) (UniProt Q9NRM7)
CLK3 (human) = CLK3 (human) (UniProt P49761)
PKMYT1 (human) = PKMYT1 (human) (UniProt Q99640)
PAK3 (human) = PAK3 (human) (UniProt O75914)
SRPK2 (human) = SRPK2 (human) (UniProt P78362)
TAOK3 (human) = TAOK3 (human) (UniProt Q9H2K8)
LIMK2 (human) = LIMK2 (human) (UniProt P53671)
RPS6KA5 KD2 (human) = RPS6KA5 KD2 (human) (UniProt O75582)
RPS6KA2 KD2 (human) = RPS6KA2 KD2 (human) (UniProt Q15349)
PAK6 (human) = PAK6 (human) (UniProt Q9NQU5)
BMPR1B (human) = BMPR1B (human) (UniProt O00238)
MAP2K4 (human) = MAP2K4 (human) (UniProt P45985)
MARK4 (human) = MARK4 (human) (UniProt Q96L34)
PTK6 (human) = PTK6 (human) (UniProt Q13882)
MELK (human) = MELK (human) (UniProt Q14680)
EPHA1 (human) = EPHA1 (human) (UniProt P21709)
CDKL1 (human) = CDKL1 (human) (UniProt Q00532)
PIK3CG (human) = PIK3CG (human) (UniProt P48736)
RIPK4 (human) = RIPK4 (human) (UniProt P57078)
PRKD3 (human) = PRKD3 (human) (UniProt O94806)
[2] = target: JAK2 JH1 catalytic (human) (UniProt O60674)
MST4 (human) = MST4 (human) (UniProt Q9P289)
ROCK2 (human) = ROCK2 (human) (UniProt O75116)
BLK (human) = BLK (human) (UniProt P51451)
BLK (human), sequence (P51451 whole entry, looked up): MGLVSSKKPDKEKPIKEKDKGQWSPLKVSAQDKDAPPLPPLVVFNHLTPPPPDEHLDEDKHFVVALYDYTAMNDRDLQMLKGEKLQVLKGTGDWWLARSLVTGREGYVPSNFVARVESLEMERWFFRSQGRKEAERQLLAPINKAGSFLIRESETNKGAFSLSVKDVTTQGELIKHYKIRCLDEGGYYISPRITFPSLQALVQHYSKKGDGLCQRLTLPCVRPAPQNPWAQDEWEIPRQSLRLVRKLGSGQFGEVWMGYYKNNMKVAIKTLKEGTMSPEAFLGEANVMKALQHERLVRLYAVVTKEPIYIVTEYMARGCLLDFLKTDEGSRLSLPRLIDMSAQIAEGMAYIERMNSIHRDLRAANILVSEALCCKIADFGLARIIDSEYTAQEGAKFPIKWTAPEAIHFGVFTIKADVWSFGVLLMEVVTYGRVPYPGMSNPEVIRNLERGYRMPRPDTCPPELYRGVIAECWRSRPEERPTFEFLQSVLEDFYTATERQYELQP

PKMYT1 (human), sequence (Q99640 whole entry, looked up): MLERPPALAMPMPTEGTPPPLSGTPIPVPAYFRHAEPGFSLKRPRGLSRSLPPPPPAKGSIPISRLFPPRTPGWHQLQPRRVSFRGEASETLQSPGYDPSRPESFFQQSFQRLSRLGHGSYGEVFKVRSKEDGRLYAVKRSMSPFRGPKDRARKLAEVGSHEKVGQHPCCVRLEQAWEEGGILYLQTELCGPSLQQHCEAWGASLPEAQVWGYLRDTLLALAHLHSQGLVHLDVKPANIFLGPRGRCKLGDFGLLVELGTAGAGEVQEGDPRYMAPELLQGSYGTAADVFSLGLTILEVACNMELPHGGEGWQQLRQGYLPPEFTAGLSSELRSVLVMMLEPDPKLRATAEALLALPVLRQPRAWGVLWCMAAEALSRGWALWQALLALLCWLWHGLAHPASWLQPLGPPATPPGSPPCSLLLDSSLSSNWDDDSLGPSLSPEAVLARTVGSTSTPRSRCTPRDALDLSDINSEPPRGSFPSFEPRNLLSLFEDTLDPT
PTK6 (human), sequence (Q13882 whole entry, looked up): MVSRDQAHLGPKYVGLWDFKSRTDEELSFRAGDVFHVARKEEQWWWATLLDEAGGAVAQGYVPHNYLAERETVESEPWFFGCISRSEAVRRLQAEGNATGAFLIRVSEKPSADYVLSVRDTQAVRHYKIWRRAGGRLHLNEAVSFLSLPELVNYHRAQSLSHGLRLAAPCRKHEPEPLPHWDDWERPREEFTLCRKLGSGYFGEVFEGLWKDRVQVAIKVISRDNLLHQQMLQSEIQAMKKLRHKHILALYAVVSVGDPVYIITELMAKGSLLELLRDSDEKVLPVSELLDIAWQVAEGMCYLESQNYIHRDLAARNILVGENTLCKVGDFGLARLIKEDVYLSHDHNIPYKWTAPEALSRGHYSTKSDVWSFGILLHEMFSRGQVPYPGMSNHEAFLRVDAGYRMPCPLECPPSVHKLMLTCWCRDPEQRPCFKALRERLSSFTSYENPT
STK32B (human), sequence (Q9NY57 whole entry, looked up): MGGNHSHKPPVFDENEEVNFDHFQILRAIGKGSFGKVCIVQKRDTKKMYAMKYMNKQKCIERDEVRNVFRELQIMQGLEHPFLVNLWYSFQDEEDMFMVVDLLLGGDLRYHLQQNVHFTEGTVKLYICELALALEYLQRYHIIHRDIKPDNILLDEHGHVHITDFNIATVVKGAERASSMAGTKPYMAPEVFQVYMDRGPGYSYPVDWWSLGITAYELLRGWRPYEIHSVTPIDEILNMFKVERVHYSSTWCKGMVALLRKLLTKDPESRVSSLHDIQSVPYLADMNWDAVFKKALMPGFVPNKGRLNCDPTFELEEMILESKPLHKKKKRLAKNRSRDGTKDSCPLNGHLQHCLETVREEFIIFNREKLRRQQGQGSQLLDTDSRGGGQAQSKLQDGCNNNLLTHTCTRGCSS
JAK2 JH1 catalytic (human), sequence (O60674 whole entry, looked up): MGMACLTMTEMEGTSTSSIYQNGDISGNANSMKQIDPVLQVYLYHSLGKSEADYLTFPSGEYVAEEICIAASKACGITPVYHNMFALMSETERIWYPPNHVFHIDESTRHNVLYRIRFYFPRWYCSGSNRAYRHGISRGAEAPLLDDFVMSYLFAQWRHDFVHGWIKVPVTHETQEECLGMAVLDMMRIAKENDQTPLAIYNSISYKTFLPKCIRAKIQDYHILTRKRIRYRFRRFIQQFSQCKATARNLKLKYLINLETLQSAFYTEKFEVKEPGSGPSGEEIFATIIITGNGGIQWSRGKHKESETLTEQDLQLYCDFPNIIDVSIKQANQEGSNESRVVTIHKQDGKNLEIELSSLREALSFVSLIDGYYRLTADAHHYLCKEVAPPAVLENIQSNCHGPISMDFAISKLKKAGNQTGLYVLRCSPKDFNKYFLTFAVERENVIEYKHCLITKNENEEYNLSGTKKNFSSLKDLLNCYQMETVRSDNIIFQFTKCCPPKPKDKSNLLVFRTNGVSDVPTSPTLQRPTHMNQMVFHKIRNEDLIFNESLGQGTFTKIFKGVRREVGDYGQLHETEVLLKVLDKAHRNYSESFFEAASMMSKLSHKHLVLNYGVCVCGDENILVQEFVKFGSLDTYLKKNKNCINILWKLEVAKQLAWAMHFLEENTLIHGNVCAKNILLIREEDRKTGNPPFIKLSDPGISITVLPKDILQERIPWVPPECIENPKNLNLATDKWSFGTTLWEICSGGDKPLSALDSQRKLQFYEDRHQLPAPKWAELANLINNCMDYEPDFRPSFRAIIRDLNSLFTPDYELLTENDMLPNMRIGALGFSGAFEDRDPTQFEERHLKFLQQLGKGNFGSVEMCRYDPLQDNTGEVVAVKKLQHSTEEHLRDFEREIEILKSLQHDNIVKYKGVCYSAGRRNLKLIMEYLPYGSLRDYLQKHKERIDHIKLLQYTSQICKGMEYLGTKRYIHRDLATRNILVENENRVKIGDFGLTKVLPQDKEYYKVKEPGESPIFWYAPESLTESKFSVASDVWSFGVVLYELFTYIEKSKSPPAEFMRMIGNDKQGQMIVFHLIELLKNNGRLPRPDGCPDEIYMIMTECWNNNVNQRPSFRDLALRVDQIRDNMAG
IKBKB (human), sequence (O14920 whole entry, looked up): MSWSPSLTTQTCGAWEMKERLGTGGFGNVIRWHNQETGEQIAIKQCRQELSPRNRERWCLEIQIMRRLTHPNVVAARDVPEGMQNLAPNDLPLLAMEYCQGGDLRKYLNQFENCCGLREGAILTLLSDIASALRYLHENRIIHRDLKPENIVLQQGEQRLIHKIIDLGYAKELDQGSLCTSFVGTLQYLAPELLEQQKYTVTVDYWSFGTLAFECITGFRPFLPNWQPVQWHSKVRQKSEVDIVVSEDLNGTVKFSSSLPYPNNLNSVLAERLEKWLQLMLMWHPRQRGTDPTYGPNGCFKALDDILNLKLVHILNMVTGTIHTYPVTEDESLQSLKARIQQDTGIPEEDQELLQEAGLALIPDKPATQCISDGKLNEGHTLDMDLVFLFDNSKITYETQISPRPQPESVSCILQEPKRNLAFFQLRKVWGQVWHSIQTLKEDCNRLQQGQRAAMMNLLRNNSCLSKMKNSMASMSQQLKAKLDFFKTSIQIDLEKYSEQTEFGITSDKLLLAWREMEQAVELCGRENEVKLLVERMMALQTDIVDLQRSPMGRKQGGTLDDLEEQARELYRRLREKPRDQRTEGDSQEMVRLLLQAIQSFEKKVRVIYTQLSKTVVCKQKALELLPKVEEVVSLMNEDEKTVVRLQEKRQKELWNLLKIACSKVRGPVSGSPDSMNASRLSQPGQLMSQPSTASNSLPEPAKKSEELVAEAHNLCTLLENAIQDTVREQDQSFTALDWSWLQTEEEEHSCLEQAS
MELK (human), sequence (Q14680 whole entry, looked up): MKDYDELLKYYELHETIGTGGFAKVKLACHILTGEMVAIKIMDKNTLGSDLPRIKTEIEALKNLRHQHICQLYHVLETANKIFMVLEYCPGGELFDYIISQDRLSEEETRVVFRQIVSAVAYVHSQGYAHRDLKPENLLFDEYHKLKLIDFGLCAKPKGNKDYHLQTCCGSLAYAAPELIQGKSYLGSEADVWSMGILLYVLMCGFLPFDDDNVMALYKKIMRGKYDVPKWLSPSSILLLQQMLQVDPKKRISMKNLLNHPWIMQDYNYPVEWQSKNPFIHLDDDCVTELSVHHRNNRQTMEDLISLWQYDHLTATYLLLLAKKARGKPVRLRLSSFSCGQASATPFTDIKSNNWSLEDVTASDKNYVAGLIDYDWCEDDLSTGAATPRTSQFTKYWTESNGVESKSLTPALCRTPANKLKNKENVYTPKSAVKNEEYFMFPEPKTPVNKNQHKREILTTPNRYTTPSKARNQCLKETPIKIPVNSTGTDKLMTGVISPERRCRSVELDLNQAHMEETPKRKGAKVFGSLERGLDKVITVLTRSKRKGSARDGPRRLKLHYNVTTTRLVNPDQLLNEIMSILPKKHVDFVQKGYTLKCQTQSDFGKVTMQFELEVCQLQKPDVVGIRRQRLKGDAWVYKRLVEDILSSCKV
MAP2K4 (human), sequence (P45985 whole entry, looked up): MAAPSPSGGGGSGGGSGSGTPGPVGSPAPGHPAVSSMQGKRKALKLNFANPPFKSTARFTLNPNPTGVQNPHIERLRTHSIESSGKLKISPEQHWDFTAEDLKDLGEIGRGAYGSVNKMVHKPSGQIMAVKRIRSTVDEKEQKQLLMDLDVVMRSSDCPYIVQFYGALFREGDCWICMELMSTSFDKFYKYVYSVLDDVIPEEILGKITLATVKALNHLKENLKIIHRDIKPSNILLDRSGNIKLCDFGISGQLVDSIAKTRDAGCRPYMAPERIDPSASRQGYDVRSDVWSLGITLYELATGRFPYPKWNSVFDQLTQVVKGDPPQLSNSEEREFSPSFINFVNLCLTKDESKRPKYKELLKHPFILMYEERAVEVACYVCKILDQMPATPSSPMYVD

SMILES	kinase still bound, per cent of control (CASK (human)) [%]	kinase still bound, per cent of control (FRK (human)) [%]	kinase still bound, per cent of control (MAP2K7 (human)) [%]	kinase still bound, per cent of control (ROCK1 (human)) [%]	kinase still bound, per cent of control [1] [%]	kinase still bound, per cent of control (STK32B (human)) [%]	kinase still bound, per cent of control (CaMK1 (human)) [%]	kinase still bound, per cent of control (PIP4K2B (human)) [%]	kinase still bound, per cent of control (CDK19 (human)) [%]	kinase still bound, per cent of control (IKBKB (human)) [%]	kinase still bound, per cent of control (LATS2 (human)) [%]	kinase still bound, per cent of control (CLK3 (human)) [%]	kinase still bound, per cent of control (PKMYT1 (human)) [%]	kinase still bound, per cent of control (PAK3 (human)) [%]	kinase still bound, per cent of control (SRPK2 (human)) [%]	kinase still bound, per cent of control (TAOK3 (human)) [%]	kinase still bound, per cent of control (LIMK2 (human)) [%]	kinase still bound, per cent of control (RPS6KA5 KD2 (human)) [%]	kinase still bound, per cent of control (RPS6KA2 KD2 (human)) [%]	kinase still bound, per cent of control (PAK6 (human)) [%]	other results
COc1cc2ncnc(-n3nc(-c4ccccn4)nc3N)c2cc1OC	26	19	77	21	67	100	31	44	100	45	11	3.6	63	12	88	39	20	33	43	55	kinase still bound, per cent of control (BMPR1B (human)): 14%; kinase still bound, per cent of control (MAP2K4 (human)): 3.8%; kinase still bound, per cent of control (MARK4 (human)): 75%; kinase still bound, per cent of control (PTK6 (human)): 51%; kinase still bound, per cent of control (MELK (human)): 9.2%; kinase still bound, per cent of control (EPHA1 (human)): 14%; kinase still bound, per cent of control (CDKL1 (human)): 21%; kinase still bound, per cent of control (PIK3CG (human)): 3.1%; kinase still bound, per cent of control (RIPK4 (human)): 12%; kinase still bound, per cent of control (PRKD3 (human)): 42%; kinase still bound, per cent of control [2]: 26%; kinase still bound, per cent of control (MST4 (human)): 68%; kinase still bound, per cent of control (ROCK2 (human)): 20%; kinase still bound, per cent of control (BLK (human)): 8.8%
O=C(Nc1cccc(Nc2ncc(Br)c(NCCc3cnc[nH]3)n2)c1)N1CCCC1	67	46	60	0.6	2	100	11	0.55	100	8.4	0	74	100	2.6	5.4	0.1	59	31	4.8	11	kinase still bound, per cent of control (BMPR1B (human)): 0%; kinase still bound, per cent of control (MAP2K4 (human)): 0.3%; kinase still bound, per cent of control (MARK4 (human)): 0%; kinase still bound, per cent of control (PTK6 (human)): 45%; kinase still bound, per cent of control (MELK (human)): 2.2%; kinase still bound, per cent of control (EPHA1 (human)): 35%; kinase still bound, per cent of control (CDKL1 (human)): 1.8%; kinase still bound, per cent of control (PIK3CG (human)): 58%; kinase still bound, per cent of control (RIPK4 (human)): 0.3%; kinase still bound, per cent of control (PRKD3 (human)): 0.5%; kinase still bound, per cent of control [2]: 0%; kinase still bound, per cent of control (MST4 (human)): 0.4%; kinase still bound, per cent of control (ROCK2 (human)): 0.55%; kinase still bound, per cent of control (BLK (human)): 0.6%

Source: the kinase profiling compilation of Christmann-Franck et al. (2016)
